Measurements reported in ChEMBL document CHEMBL2157919, “Attenuation of collagen-induced arthritis by orally available imidazoline-based NF-κB inhibitors” (Bioorg Med Chem Lett, 2012).
Activity calls are given as the source filed them. The calls are words filed in the database; no cut-off is given here.

Key:
[1] = Plasma concentration in BALB/c mouse at 400 mg/kg, po after 3 hrs; assay type: ADME, organism-based; parameters: dose 400 mg/kg, route oral
[2] = Plasma concentration in BALB/c mouse at 50 mg/kg, ip after 3 hrs; assay type: ADME, organism-based; parameters: dose 50 mg/kg, route intraperitoneal
[3] = Plasma concentration in BALB/c mouse at 50 mg/kg, po after 3 hrs; assay type: ADME, organism-based; parameters: dose 50 mg/kg, route oral
[4] = Plasma concentration in BALB/c mouse at 200 mg/kg, po after 3 hrs; assay type: ADME, organism-based; parameters: dose 200 mg/kg, route oral
Mus musculus [5] = test: Antiinflammatory activity in BALB/c mouse assessed as reduction of LPS-induced TNFalpha production in serum at 5 to 100 mg/kg, po administered 1 hr before LPS challenge measured after 3 hrs by EIA; assay type: functional; parameters: scale not given: the % may be the effect or the level left; conditions: dose mg/kg 5-100
Mus musculus [6] = test: Antiinflammatory activity in BALB/c mouse assessed as reduction of LPS-induced TNFalpha production in serum at 5 mg/kg, po administered 1 hr before LPS challenge measured after 3 hrs by EIA relative to LPS treated control; assay type: functional; parameters: scale not given: the % may be the effect or the level left
Mus musculus [7] = test: Antiarthritic activity in BALB/c mouse type 2 collagen antibody-induced arthritis model assessed as inhibition of disease burden at 50 mg/kg, ip qd for 14 days measured on day 20 relative to control; assay type: functional; conditions: route intraperitoneal
Mus musculus [8] = test: Antiarthritic activity in BALB/c mouse type 2 collagen antibody-induced arthritis model assessed as physiological disease-modifying affect at 50 mg/kg, ip qd for 14 days measured on day 20 relative to control; assay type: functional, organism-based; parameters: dose 50 mg/kg
Mus musculus [9] = test: Toxicity in BALB/c mouse type 2 collagen antibody-induced arthritis model assessed as change in body weight at 50 mg/kg, ip qd for 14 days measured on day 20; assay type: organism-based; parameters: dose 50 mg/kg, route intraperitoneal; conditions: in vivo, 336 h
Mus musculus [10] = test: Hepatotoxicity in BALB/c mouse assessed as increase in serum ALT level at 50 mg/kg, po after 6 hrs; assay type: toxicity, organism-based; parameters: dose 50 mg/kg, route oral; conditions: in vivo
Mus musculus [11] = test: Hepatotoxicity in BALB/c mouse assessed as increase in serum ALT level at 150 mg/kg, po after 6 hrs; assay type: toxicity, organism-based; parameters: dose 150 mg/kg, route oral; conditions: in vivo
Mus musculus [12] = test: Hepatotoxicity in BALB/c mouse assessed as increase in serum ALT level at 50 mg/kg, ip after 13 to 19 days; assay type: toxicity, organism-based; parameters: dose 50 mg/kg, route intraperitoneal; conditions: in vivo
Mus musculus [13] = test: Hepatotoxicity in BALB/c mouse assessed as increase in serum ALT level at 150 mg/kg, ip after 13 to 19 days; assay type: toxicity, organism-based; parameters: dose 150 mg/kg, route intraperitoneal; conditions: in vivo
Mus musculus [14] = test: Antiarthritic activity in BALB/c mouse type 2 collagen antibody-induced arthritis model assessed as inhibition of disease burden at 150 mg/kg, ip qd for 14 days measured on day 20 relative to control; assay type: functional; conditions: route intraperitoneal
Mus musculus [15] = test: Antiarthritic activity in BALB/c mouse type 2 collagen antibody-induced arthritis model assessed as reduction of inflammation at 150 mg/kg, ip qd for 14 days measured on day 20 relative to control; assay type: functional, organism-based; parameters: dose 150 mg/kg
Mus musculus [16] = test: Antiarthritic activity in BALB/c mouse type 2 collagen antibody-induced arthritis model assessed as reduction of pannus formation at 150 mg/kg, ip qd for 14 days measured on day 20 relative to control; assay type: functional, organism-based; parameters: dose 150 mg/kg
Mus musculus [17] = test: Antiarthritic activity in BALB/c mouse type 2 collagen antibody-induced arthritis model assessed as reduction of cartilage damage at 150 mg/kg, ip qd for 14 days measured on day 20 relative to control; assay type: functional, organism-based; parameters: dose 150 mg/kg
Mus musculus [18] = test: Antiarthritic activity in BALB/c mouse type 2 collagen antibody-induced arthritis model assessed as reduction of bone resorption at 150 mg/kg, ip qd for 14 days measured on day 20 relative to control; assay type: functional, organism-based; parameters: dose 150 mg/kg
Mus musculus [19] = test: Antiarthritic activity in BALB/c mouse type 2 collagen antibody-induced arthritis model assessed as reduction of exostosis at 150 mg/kg, ip qd for 14 days measured on day 20 relative to control; assay type: functional, organism-based; parameters: dose 150 mg/kg
Mus musculus [20] = test: Antiarthritic activity in BALB/c mouse type 2 collagen antibody-induced arthritis model assessed as physiological disease-modifying affect at 150 mg/kg, ip qd for 14 days measured on day 20 relative to control; assay type: functional, organism-based; parameters: dose 150 mg/kg
Mus musculus [21] = test: Toxicity in BALB/c mouse type 2 collagen antibody-induced arthritis model assessed as change in body weight at 150 mg/kg, ip qd for 14 days measured on day 20; assay type: organism-based; parameters: dose 150 mg/kg, route intraperitoneal; conditions: in vivo, 336 h
Mus musculus [22] = test: Antiarthritic activity in BALB/c mouse type 2 collagen antibody-induced arthritis model assessed as inhibition of disease burden at 3 mg/kg, po qd for 14 days measured on day 20 relative to control; assay type: functional
Mus musculus [23] = test: Antiarthritic activity in BALB/c mouse type 2 collagen antibody-induced arthritis model assessed as physiological disease-modifying affect at 3 mg/kg, po qd for 14 days measured on day 20 relative to control; assay type: functional, organism-based; parameters: dose 3 mg/kg
Mus musculus [24] = test: Toxicity in BALB/c mouse type 2 collagen antibody-induced arthritis model assessed as change in body weight at 3 mg/kg, po qd for 14 days measured on day 20; assay type: organism-based; parameters: dose 3 mg/kg, route oral; conditions: in vivo, 336 h

With `CCOC(=O)[C@]1(c2ccccc2)N=C(c2ccccc2)N(Cc2ccccc2)[C@@H]1c1ccccc1` the concentration at 3 h [1] was 9 µM, the concentration at 3 h [2] was 6 µM and the concentration at 3 h [3] was 2 µM. It also gave a concentration at 3 h [4] of 4 µM, an Activity (Mus musculus [5]) of 50% and an Activity (Mus musculus [6]) of 50%. The inhibition in vivo at 50 mg/kg (Mus musculus [7]) was 67%, the Activity (Mus musculus [8]) was “Active” and the Activity (Mus musculus [9]) was “Non-toxic”.

For `CCOC(=O)C1(c2ccccc2)N=C(c2ccccc2)N(Cc2ccccc2)C1c1ccccc1` (racemic), the Activity (Mus musculus [10]) was “Non-toxic”, the Activity (Mus musculus [11]) was “Non-toxic” and the Activity (Mus musculus [12]) was “Non-toxic”. For the same compound, the Activity (Mus musculus [13]) was “Non-toxic”, the inhibition in vivo at 150 mg/kg (Mus musculus [14]) was 94% and the Activity (Mus musculus [15]) was “Active”. The Activity (Mus musculus [16]) was “Active”, the Activity (Mus musculus [17]) was “Active” and the Activity (Mus musculus [18]) was “Active”. The Activity (Mus musculus [19]) was “Active”, the Activity (Mus musculus [20]) was “Active” and the Activity (Mus musculus [21]) was “Non-toxic”.

For `C[C@@H]1C[C@H]2[C@@H]3CCC4=CC(=O)C=C[C@]4(C)[C@@]3(F)[C@@H](O)C[C@]2(C)[C@@]1(O)C(=O)CO` [DEXAMETHASONE], the inhibition in vivo at 3 mg/kg (Mus musculus [22]) was 102%, the Activity (Mus musculus [23]) was “Active” and the Activity (Mus musculus [24]) was “Toxic”.
